Experimental data: patent US20150073021A1 (priority 2013, published 2015)

Tests used:
humans = conditions: in vivo; cited from earlier work
bovine serum albumin = bovine serum albumin (Bos taurus, UniProt P02769); conditions: cited from earlier work
[1] = system: rats expressing pathologically excessive levels of MMPs; conditions: rat, in vivo; cited from earlier work
cell and tissue culture = conditions: cited from earlier work
Bacillus anthracis = conditions: in vivo

Sequence of bovine serum albumin (P02769 25-607): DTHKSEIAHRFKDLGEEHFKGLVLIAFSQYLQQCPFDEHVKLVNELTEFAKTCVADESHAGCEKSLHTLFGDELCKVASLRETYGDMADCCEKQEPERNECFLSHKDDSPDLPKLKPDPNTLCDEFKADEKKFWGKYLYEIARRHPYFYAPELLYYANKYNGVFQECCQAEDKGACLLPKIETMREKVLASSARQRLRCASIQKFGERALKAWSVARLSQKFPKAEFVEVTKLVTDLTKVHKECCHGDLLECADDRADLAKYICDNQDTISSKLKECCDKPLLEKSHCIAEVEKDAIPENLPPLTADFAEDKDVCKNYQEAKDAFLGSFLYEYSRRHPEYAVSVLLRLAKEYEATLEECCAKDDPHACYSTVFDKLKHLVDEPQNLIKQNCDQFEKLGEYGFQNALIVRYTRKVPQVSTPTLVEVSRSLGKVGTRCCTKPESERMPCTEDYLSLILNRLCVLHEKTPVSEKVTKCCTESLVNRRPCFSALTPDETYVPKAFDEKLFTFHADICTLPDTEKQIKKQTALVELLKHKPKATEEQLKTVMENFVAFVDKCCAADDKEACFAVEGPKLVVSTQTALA

SMILES | toxicity in humans (humans) | binding to bovine serum albumin (bovine serum albumin) | toxicity after oral gavage [1] | toxicity compared to the parent compound curcumin (cell and tissue culture) | treatment of subject infected with Bacillus anthracis (Bacillus anthracis)
COc1cc(/C=C/C(=O)CC(=O)/C=C/c2ccc(O)c(OC)c2)ccc1O [curcumin, reference compound] | virtually no toxicity | bind fairly strongly | no evidence of toxicity | – | –
O=C(/C=C/c1ccc(O)cc1)C(C(=O)/C=C/c1ccc(O)cc1)C(=O)Nc1ccccc1 [CMC2.24] | – | bind fairly strongly | no evidence of toxicity | even less toxicity | effective to treat the subject
